These molecules were tested against T1, human V3 receptor (Homo sapiens, UniProt P47901) (assay: [3H]AVP binding to CHO cells stably expressing the human V3 receptor). Conditions: [3H]AVP 2.5x10^-9 mol/L.
T1 construct: expressed in transfected cells
T1 sequence (P47901 1-424): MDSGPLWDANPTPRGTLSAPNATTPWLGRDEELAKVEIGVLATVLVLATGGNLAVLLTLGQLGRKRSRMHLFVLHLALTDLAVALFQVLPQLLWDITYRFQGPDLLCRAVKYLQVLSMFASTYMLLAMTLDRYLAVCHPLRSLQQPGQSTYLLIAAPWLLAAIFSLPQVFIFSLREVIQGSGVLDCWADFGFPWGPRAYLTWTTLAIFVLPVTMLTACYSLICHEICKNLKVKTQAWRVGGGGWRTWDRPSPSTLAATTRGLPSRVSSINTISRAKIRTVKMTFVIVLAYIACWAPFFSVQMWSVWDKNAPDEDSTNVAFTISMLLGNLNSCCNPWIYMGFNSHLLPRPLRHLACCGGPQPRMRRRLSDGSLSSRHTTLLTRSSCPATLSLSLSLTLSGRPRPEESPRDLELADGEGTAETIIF
Procedure: Chinese Hamster Ovary (CHO) cells stably expressing the human V3 receptor were incubated to equilibrium with the test compound (at a final assay concentration of 10^−10 mol.L^−1 to 10^−5 mol.L^−1) and [^3H]AVP (at a final assay concentration of 2.5×10^−9 mol.L^−1). […] After washing with ice-cold phosphate buffered saline (PBS), scintillation fluid was added and the plates counted on a Topcount NXT apparatus.
A sigmoidal dose response curve (non-linear regression, variable slope) was plotted as concentration of test compound (mol.L^−1) against percentage specific binding of [^3H]AVP and a Ki value was calculated. Each determination was carried out in triplicate and repeated on at least 3 separate occasions

| SMILES | Ki |
| --- | --- |
| COc1cccc(-c2nc3ccc(N4CCCC(CN(C)C)C4)cc3c(=O)n2CC(=O)NC(C)C)c1 (centres unmarked) [Example 3c, 2-[6-(3-Dimethylaminomethyl-piperidin-1-yl)-2-(3-methoxyphenyl)-4-oxo-4H-quinazolin-3-yl]-N-isopropylacetamide] | 0.01 to 0.1 µM |
| CCN1CCCN(c2ccc3nc(-c4ccc(F)c(OC)c4)n(CC(=O)NC(C)(C)C(F)(F)F)c(=O)c3c2)CC1 [Example 9h, 2-[6-(4-Ethylperhydro-1,4-diazepin-1-yl)-2-(4-fluoro-3-methoxyphenyl)-4-oxo-4H-quinazolin-3-yl]-N-(2,212-trifluoro-1,1-dimethylethyl)acetamide] | < 0.01 µM |
| COCCN1CCCN(c2ccc3nc(-c4cccc(OC)c4)n(CC(=O)NC(C)C)c(=O)c3c2)CC1 [Example 4d, N-Isopropyl-2-[6-[4-(2-methoxyethyl)perhydro-1,4-diazepin-1-yl]-2-(3-methoxyphenyl)-4-oxo-4H-quinazolin-3-yl]acetamide] | < 0.01 µM |
| CC(C)N1CCCN(c2ccc3nc(-c4cccc(Cl)c4)n(CC(=O)N(C)C(C)C)c(=O)c3c2)CC1 [Example 9u, 2-[2-(3-Chlorophenyl)-6-(4-isopropylperhydro-1,4-diazepin-1-yl)-4-oxo-4H-quinazolin-3-yl]-N-isopropyl-N-methylacetamide] | 0.01 to 0.1 µM |
| CC(C)NC(=O)Cn1c(-c2ccc(F)c(Cl)c2)nc2ccc(N3CCN(C)CC(C)(C)C3)cc2c1=O [Example 5s, 2-[2-(3-Chloro-4-fluorophenyl)-4-oxo-6-(4,6,6-trimethylperhydro-1,4-diazepin-1-yl)-4H-quinazolin-3-yl]-N-isopropylacetamide] | < 0.01 µM |
| CC(C)NC(=O)Cn1c(-c2ccc(F)c(Cl)c2)nc2ccc(N3CCCN(CC(C)(C)C)CC3)cc2c1=O [Example 5Ac, 2-{2-(3-Chloro-4-fluorophenyl)-6-[4-(2,2-dimethylpropyl)perhydro-1,4-diazepin-1-yl]-4-oxo-4H-quinazolin-3-yl}-N-isopropylacetamide] | < 0.01 µM |
| COc1cccc(-c2nc3ccc(N4CCCN(CC(F)(F)F)CC4)cc3c(=O)n2CC(=O)NC(C)C)c1 [Example 4c, N-Isopropyl-2-{2-(3-methoxyphenyl)-4-oxo-6-[4-(2,2,2-trifluoroethyl)Perhydro-1,4-diazepin-1-yl]-4H-quinazolin-3-yl}acetamide] | 0.1 to 1 µM |
| COc1cccc(-c2nc3ccc(N4CCC[C@H](CN5CCCCC5)C4)cc3c(=O)n2CC(=O)NC(C)C)c1 [Example 3f, N-Isopropyl-2-[2-(3-methoxyphenyl)-4-oxo-6-((R)-3-piperidin-1-ylmethylpiperidin-1-yl)-4H-quinazolin-3-yl]acetamide] | < 0.01 µM |
| CC(C)NC(=O)Cn1c(-c2cc(Cl)cc(OC(F)(F)F)c2)nc2ccc(N3CCCN(C(C)C)CC3)cc2c1=O [Example 6w, 2-[2-(3-Chloro-5-trifluoromethoxyphenyl)-6-(4-isopropylperhydro-1,4-diazepin-1-yl)-4-oxo-4H-quinazolin-3-yl]-N-isopropylacetamide] | < 0.01 µM |
| CC(C)(C)NC(=O)Cn1c(C2CCCC2)nc2ccc(N3CCCNCC3)cc2c1=O [Example 7a] | 0.01 to 0.1 µM |
| COc1cccc(-c2nc3ccc(N4CCNCC4)cc3c(=O)n2CC(=O)NC(C)C)c1 [Example 2b, N-Isopropyl-2-[2-(3-methoxyphenyl)-4-oxo-6-piperazin-1-yl-4H-quinazolin-3-yl]acetamide] | 0.01 to 0.1 µM |
| CC(C)NC(=O)Cn1c(-c2cccc(Cl)c2)nc2ccc(N3CCCNCC3)cc2c1=O [Example 1b, 2-[2-(3-Chlorophenyl)-4-oxo-6-perhydro-1,4-diazepin-1-yl-4H-quinazolin-3-yl]-N-isopropylacetamide] | < 0.01 µM |
| COCC(C)NC(=O)Cn1c(-c2ccc(F)c(OC)c2)nc2ccc(N3CCN4CCC3CC4)cc2c1=O (centres unmarked) [Example 9Ah, 2-[6-(1,4-Diazabicyclo[3.2.2]non-4-yl)-2-(4-fluoro-3-methoxyphenyl)-4-oxo-4H-quinazolin-3-yl]-N-(2-methoxy-1-methylethyl)acetamide] | 0.01 to 0.1 µM |

Each molecule was assayed against T2, V3 receptor (Rattus norvegicus, UniProt P48974) (assay: Block of AVP-induced ACTH release from isolated rat anterior pituitary corticotrophs). Conditions: ACTH release after 3x10^-9 mol/L AVP for 120 minutes, ELISA; read-out: V3 receptor antagonism in isolated rat anterior pituitary cells.
T2 construct: Anterior pituitary corticotrophs were prepared from adult female Sprague-Dawley rats; endogenous in cells; host or cells: primary anterior pituitary corticotrophs from adult female Sprague-Dawley rats
T2 sequence (P48974 1-425): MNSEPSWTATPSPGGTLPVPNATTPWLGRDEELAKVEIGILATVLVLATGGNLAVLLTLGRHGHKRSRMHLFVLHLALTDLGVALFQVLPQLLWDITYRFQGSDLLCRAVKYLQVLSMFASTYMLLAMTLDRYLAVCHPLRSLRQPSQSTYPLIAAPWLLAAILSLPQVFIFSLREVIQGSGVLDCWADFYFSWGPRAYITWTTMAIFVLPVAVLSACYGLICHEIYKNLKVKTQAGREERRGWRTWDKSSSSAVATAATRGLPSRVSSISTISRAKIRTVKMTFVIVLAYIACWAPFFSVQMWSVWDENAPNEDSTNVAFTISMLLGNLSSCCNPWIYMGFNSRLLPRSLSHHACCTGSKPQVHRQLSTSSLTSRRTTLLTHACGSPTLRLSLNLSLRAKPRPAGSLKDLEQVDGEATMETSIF
Type: cell-based
Procedure: The ability of compounds of the invention to act as V3 antagonists in a physiologically relevant system was determined by measuring their ability to block the release of adrenocorticotropic hormone (ACTH) from anterior pituitary corticotrophs in response to treatment with arginine vasopressin (AVP).
Anterior pituitary corticotrophs were prepared from adult female Sprague-Dawley rats and seeded into 48 well plates. The cells were cultured for 4 days prior to exposure to compound. Test compounds were prepared at […] in 100% DMSO. Cells were exposed to a dose response of test compounds for 20 minutes (10^−8 mol.L^−1-10^−5 mol.L^−1). The final concentration of DMSO in the assay was kept constant at 0.3%. The cells were then exposed to 3×10^−9 mol.L^−1 AVP for 120 minutes. Supernatants were harvested and stored at −20° C. ACTH levels were subsequently measured by ELISA following the manufacturer's instructions (Immunodiagnostic systems, UK (Cat No. DX-SDX018)). Each treatment was carried out in quadruplicate and a mean value obtained for the amount of ACTH released. The degree of antagonism was then calculated as a percentage of the amount of ACTH released by agonist alone after adjustment for basal levels of ACTH. A pIC50 was calculated by fitting a Sigmoidal dose response (variable slope) curve with a non-linear (fit) to the data using the software package GraphPad prism. […]

| SMILES | IC50 |
| --- | --- |
| COc1cccc(-c2nc3ccc(N4CCCN(C(C)C)CC4)cc3c(=O)n2CC(=O)NC(C)C)c1 [Example 4b, N-Isopropyl-2-[6-(4-isopropylperhydro-1,4-diazepin-1-yl)-2-(3-methoxyphenyl)-4-oxo-4H-quinazolin-3-yl]acetamide] | 0.01 to 0.1 µM |

Reference: patent publication US7820649B2, “Quinazolinone and isoquinolinone acetamide derivatives” (N.V. Organon, priority 2006, dated 2010)
